Measured values reported in patent US7060726B2, “Antibacterial agent” (Takasago International Corporation, priority 2001, dated 2006).

Columns and labels:
Format in all cases: cell-based
[1] = test system: Propionibacterium acnes ATCC 6919; experiment: MIC, agar medium dilution method (Trypticase Soy Agar); conditions: (b) Propionibacterium acnes ATCC 6919, 37° C., 72 hours
Experimental: (§1) Test for Antibacterial Ability (Measurement of Minimum Inhibitory Concentration (MIC) Using an Agar Medium Dilution Method) The samples were dissolved in ethanol to prepare a serial twofold dilution stage and 100 μL of each was added to 10 mL of a sterilized agar medium, which was then stirred sufficiently, then transferred to a 9-cm-diameter Petri dish and solidified at ambient temperature. 5 μL of a diluted test bacteria solution was implanted in the Petri dish and cultured at 37° C. for 72 hours. After the culturing was finished, the growth state of the medium in this Petri dish was compared with that in a Petri dish (blank) containing no sample and the concentration of the sample in which the growth of bacteria was not seen was defined as minimum inhibitory concentration (MIC). (b) Propionibacterium acnes ATCC 6919 (c) Bacteriodes fragilis GAI 5560 • Trypticase Soy Agar (BBL) in these cases

[2] = test system: Corynebacterium xerosis JCM 1324; experiment: MIC, agar medium dilution method (Mueller Hinton medium); conditions: (d) Corynebacterium xerosis, 37° C., 72 hours
Experimental: as §1, with “(d) Corynebacterium xerosis JCM 1324 (g) Corynebacterium minutissimum IFO 15361” for “(b) Propionibacterium acnes ATCC 6919 (c) Bacteriodes fragilis GAI 5560”, “Mueller Hinton medium (Difco)” for “Trypticase Soy Agar (BBL)”, “cases Sample” for “cases”

[3] = test system: Bacteriodes fragilis GAI 5560; experiment: MIC, agar medium dilution method (Trypticase Soy Agar); conditions: (c) Bacteriodes fragilis, 37° C., 72 hours
Experimental: as §1, with “(MIC).” for “(MIC). (b) Propionibacterium acnes ATCC 6919”

[4] = test system: Bacillus subtilis PCI 219; experiment: MIC, agar medium dilution method; conditions: 37° C., 72 hours
Experimental: as §1, with “(MIC).” for “(MIC). (b) Propionibacterium acnes ATCC 6919 (c) Bacteriodes fragilis GAI 5560 • Trypticase Soy Agar (BBL) in these cases”

[5] = test system: Staphylococcus epidermides JCM 2414; experiment: MIC, agar medium dilution method (Mueller Hinton medium); conditions: (f) Staphylococcus epidermides, 37° C., 72 hours
Experimental: as §1, with “(f) Staphylococcus epidermides JCM 2414 (g) Corynebacterium minutissimum IFO 15361” for “(b) Propionibacterium acnes ATCC 6919 (c) Bacteriodes fragilis GAI 5560”, “Mueller Hinton medium (Difco)” for “Trypticase Soy Agar (BBL)”, “cases Sample” for “cases”

[6] = test system: Malassezia furfur IFO 0656; experiment: as above; conditions: (e) Malassezia furfur, 37° C., 72 hours
Experimental: as §1, with “(e) Malassezia furfur IFO 0656 (g) Corynebacterium minutissimum IFO 15361” for “(b) Propionibacterium acnes ATCC 6919 (c) Bacteriodes fragilis GAI 5560”, “Mueller Hinton medium (Difco)” for “Trypticase Soy Agar (BBL)”, “cases Sample” for “cases”

[7] = test system: Staphylococcus aureus ATCC 6538; experiment: MIC, agar medium dilution method (Mueller Hinton medium), qualification test method 1; conditions: method 1, agar, 37° C., 72 hours
Experimental: as §1, with “Method) Measurement of Minimum Inhibitory Concentration (MIC) Using an Agar Medium Dilution Method” for “Method)”, “samples shown below” for “samples”, “medium (Mueller Hinton medium (Difco)),” for “medium,”, “(MIC).” for “(MIC). (b) Propionibacterium acnes ATCC 6919 (c) Bacteriodes fragilis GAI 5560 • Trypticase Soy Agar (BBL) in these cases”

[8] = test system: Staphylococcus aureus 209P IAM 12082; experiment: as above; conditions: method 1, agar, 37° C., 72 hours
Experimental: as §1, with “Method) Measurement of Minimum Inhibitory Concentration (MIC) Using an Agar Medium Dilution Method” for “Method)”, “samples shown below” for “samples”, “medium (Mueller Hinton medium (Difco)),” for “medium,”, “(MIC).” for “(MIC). (b) Propionibacterium acnes ATCC 6919 (c) Bacteriodes fragilis GAI 5560 • Trypticase Soy Agar (BBL) in these cases”

[9] = test system: Bacillus subtilis PCI 219 IFO 3134; experiment: as above; conditions: method 1, agar, 37° C., 72 hours
Experimental: as §1, with “Method) Measurement of Minimum Inhibitory Concentration (MIC) Using an Agar Medium Dilution Method” for “Method)”, “samples shown below” for “samples”, “medium (Mueller Hinton medium (Difco)),” for “medium,”, “(MIC).” for “(MIC). (b) Propionibacterium acnes ATCC 6919 (c) Bacteriodes fragilis GAI 5560 • Trypticase Soy Agar (BBL) in these cases”

[10] = test system: Streptococcus mutans JCM 5175; experiment: MIC, agar medium dilution method (Trypticase Soy Agar); conditions: (a) Streptococcus mutans, 37° C., 72 hours
Experimental: (§2) Test for Antibacterial Ability (Measurement of Minimum Inhibitory Concentration (MIC) Using an Agar Medium Dilution Method)
(§3) The samples shown below were dissolved in ethanol to prepare a serial twofold dilution stage and 100 μL of each was added to 10 mL of a sterilized agar medium (Trypticase Soy Agar (BBL)), which was then stirred sufficiently, then transferred to a 9-cm-diameter Petri dish and solidified at ambient temperature. 5 μL of a diluted test bacteria (shown below) solution was implanted in the Petri dish and cultured at 37° C. for 72 hours. After the culturing was finished, the growth state of the medium in this Petri dish was compared with that in a Petri dish (blank) containing no sample and the concentration of the sample in which the growth of bacteria was not seen was defined as MIC.

[11] = test system: Actionmyces viscosus JCM 8352; experiment: as above; conditions: (c) Actionmyces viscosus, 37° C., 72 hours
Experimental: as §2, §3

[12] = test system: Prevotella intermedia JCM 6322; experiment: as above; conditions: (e) Prevotella intermedia, 37° C., 72 hours
Experimental: as §2, §3

[13] = test system: Actinomyces naeslundii JCM 8350; experiment: as above; conditions: (b) Actinomyces naeslundii, 37° C., 72 hours
Experimental: as §2, §3

[14] = test system: Fusobacterium nuclestum JCM 6328; experiment: as above; conditions: (d) Fusobacterium nuclestum, 37° C., 72 hours
Experimental: as §2, §3

[15] = test system: Porphyromonas gingivalis JCM 8525; experiment: as above; conditions: (f) Porphyromonas gingivalis, 37° C., 72 hours
Experimental: as §2, §3

[16] = test system: Corynebacterium minutissimum IFO 15361; experiment: MIC, agar medium dilution method (Mueller Hinton medium); conditions: (g) Corynebacterium minutissimum, 37° C., 72 hours
Experimental: as §1, with “(g) Corynebacterium minutissimum IFO 15361” for “(b) Propionibacterium acnes ATCC 6919 (c) Bacteriodes fragilis GAI 5560”, “Mueller Hinton medium (Difco)” for “Trypticase Soy Agar (BBL)”, “cases Sample” for “cases”

[17] = test system: Propionibacterium acnes JCM 6473; experiment: MIC, agar medium dilution method (Trypticase Soy Agar); conditions: (a) Propionibacterium acnes JCM 6473, 37° C., 72 hours
Experimental: as §1, with “(a)” for “(b)”, “JCM 6473” for “ATCC 6919”

[18] = test system: Staphylococcus aureus ATCC6538; experiment: MIC and MBC, liquid medium dilution method (NYG medium), qualification method 2; conditions: method 2, liquid medium
Experimental: (§4) Measurements of MIC and Minimum Bactericidal Concentration (MBC) by Using a Liquid Medium Dilution Method
(§5) The serial twofold dilution solution of the sample is prepared in the same manner as in the agar medium dilution method. 30 μL of the sample solution having each concentration is added to 3 mL of a liquid medium (NYG medium), to which is further added 60 μL of a test bacteria solution and the medium is cultured at 30° C. for 48 hours.
(§6) A change of the turbidity of the medium is measured using a wavelength of 660 nm to find MIC. The media 60 μL each are taken out from a test tube in which no growth of the bacteria is found and implanted in 3 mL of a new medium and cultured for 48 hours. The minimum concentration at which no growth of the bacteria was observed is defined MBC.

[19] = test system: Staphylococcus aureus IAM12082; experiment: as above; conditions: method 2, liquid medium
Experimental: as §4, §5, §6

Staphylococcus aureus = experiment: Conclusion from the measurement of MBC (liquid medium dilution method); conditions: from the results of the measurement of MBC (Table 4)
Experimental: as §4, §5, §6

SMILES: CCCCOC(=O)c1ccc(O)cc1 [Sample C-2, Butylparabene]
- Minimum inhibitory concentration (MIC) [1]: 100 ppm
- Minimum inhibitory concentration (MIC) [2]: 50 ppm
- Minimum inhibitory concentration (MIC) [3]: 50 ppm
- Minimum inhibitory concentration (MIC) [4]: 200 ppm
- Minimum inhibitory concentration (MIC) [5]: 200 ppm
- Minimum inhibitory concentration (MIC) [6]: 100 ppm
- MIC [7]: 200 ppm
- MIC [8]: 100 ppm
- MIC [9]: 200 ppm
- MIC [10]: 200 ppm
- MIC [11]: 100 ppm
- MIC [12]: 100 ppm
- MIC [13]: 100 ppm
- MIC [14]: 100 ppm
- MIC [15]: 50 ppm
- Minimum inhibitory concentration (MIC) [16]: 200 ppm
- Minimum inhibitory concentration (MIC) [17]: 100 ppm

SMILES: Oc1cc(Cl)ccc1Oc1ccc(Cl)cc1Cl [Sample C-1, Trichlosane]
- MBC [18]: 1.95 ppm
- MIC ([18]; 30° C., 48 hours): 0.977 ppm
- MBC [19]: 0.977 ppm
- MIC ([19]; 30° C., 48 hours): 0.244 ppm
- bactericidal or bacteriostatic action (Staphylococcus aureus): strong bactericidal activity
- MIC [10]: 6.3 ppm
- MIC [11]: 3.1 ppm
- MIC [12]: 3.1 ppm
- MIC [13]: 3.1 ppm
- MIC [14]: 3.1 ppm
- MIC [15]: 3.1 ppm
